Laboratory results published in patent US20240123078A1, “COMPOUNDS AND METHODS FOR MODULATING IMMUNE-RELATED PROTEINS” (Vividion Therapeutics, Inc., priority 2019, published 2024).

Experiments:
[1] = molecular target: T1, JAK1 Tyrosine-protein kinase JAK1 C810, C817 (P23458) (Homo sapiens, UniProt P23458); assay: Cysteine reactivity ABPP; assay type: binding
T1 construct: endogenous in cells; host or cells: primary human T cells
Protocol: (§1) Activated or expanded primary human T cells were re-suspended in RPMI (1×10^6 cells/mL) containing 10% fetal bovine serum (FBS), penicillin (100 U/mL), streptomycin ([…]), and L-glutamine (2 mM). The cells were treated with DMSO or compounds for 3 h, pelleted (524 g, 5 min), washed with PBS, and lysed by sonication (2×8 pulses). Soluble and particulate proteomic fractions were separated by ultracentrifugation (100,000 g, 45 min), and protein concentration was normalized to 1.7 mg/mL using a standard DC protein assay (Bio-Rad). The resulting proteomes were analyzed by competitive isotopic Tandem Orthogonal Proteolysis Activity-Based Protein Profiling (isoTOP-ABPP).
(§2) The heavy/light isoTOP-ABPP ratios (R values) for each unique peptide (DMSO/compound treated) were quantified with in-house CIMAGE software (Weerapana et al., 2010) using default parameters (3 MS1 acquisitions per peak and signal to noise threshold set to 2.5). Site-specific engagement of cysteine residues was assessed by blockade of IA-alkyne probe labeling. […] Ratios for unique peptide sequences were calculated for each experiment; overlapping peptides with the same modified cysteine (e.g., different charge states, elution times or tryptic termini) were grouped together and the median ratio was reported as the final ratio (R). Additionally, ratios for peptide sequences containing multiple cysteines were grouped together. When aggregating data across experimental replicates, the mean of each experimental median R was reported. The peptide ratios reported by CIMAGE were further filtered to ensure the removal or correction of low-quality ratios in each individual dataset. The quality filters applied were the following: removal of half-tryptic peptides, removal of peptides with more than one tryptic miscleaved, removal of peptides with R=20 and only a single MS2 event triggered during the elution of the parent ion, removal of non-unique peptides. Further filtering was then performed as described below for each experiment type.
(§3) Samples (500 μL, 1.7 mg/mL) were treated with iodoacetamide desthiobiotin (IA-DTB, 5 μL of 10 mM stock in DMSO, final concentration: 100 μM) for 1 h at ambient temperature. Ice-cold MeOH (500 μL) and CHCl3 (200 μL) were then added, the mixture was vortexed and centrifuged (10,000 g, 10 min, 4° C.) to afford a protein disc at the interface of CHCl3 and aqueous layers. Both layers were aspirated without perturbing the disk, which was re-suspended in cold methanol (500 μL) and CHCl3 (200 μL) by sonication. The proteins were pelleted (10,000 g, 10 min, 4° C.), and the resulting pellets were re-suspended in a buffer (90 μL) containing 9M urea, 10 mM DTT and 50 mM triethylammonium bicarbonate ( 1/20 dilution of 1.0 M stock solution, pH 8.5) by thorough pipetting up and down. The resulting mixture was heated at 65° C. for 20 min. Sample was cooled to room temp, iodoacetamide (10 μL, 500 mM solution in H2O) was added, and the samples were incubated at 37° C. for 30 min with shaking.
(§4) At individual TMT experiment level, the following filters were applied to remove low-quality peptides: removal of non-unique peptides; removal of half-tryptic peptides; removal of peptides with more than one internal miscleaved site; removal of peptides with low (<10,000) sum of reporter ion intensities for control channels, and peptides with high variation between the replicate control channels (coefficient of variance >0.5). R values (compound-treated vs. DMSO-treated) for each peptide entry were calculated using the reporter ion intensities of DMSO and compound treated TMT channels for each treatment group with a maximum ratio cap of 20. […]

[2] = molecular target: T2, STAT3 Signal transducer and activator of transcription 3 C259 (P40763) (Homo sapiens, UniProt P40763); assay: Cysteine reactivity ABPP; assay type: binding
T2 construct: endogenous in cells; host or cells: primary human T cells
Protocol: as §1, §2, §3, §4

[3] = molecular target: T3, CBLB E3 ubiquitin-protein ligase CBL-B C686 (Q13191) (Homo sapiens, UniProt Q13191); assay: Cysteine reactivity ABPP; assay type: binding
T3 construct: endogenous in cells; host or cells: primary human T cells
Protocol: as §1, §2, §3, §4

[4] = molecular target: T4, PTPN11 Tyrosine-protein phosphatase non-receptor type 11 C259 (Q06124) (Homo sapiens, UniProt Q06124); assay: Cysteine reactivity ABPP; assay type: binding
T4 construct: endogenous in cells; host or cells: primary human T cells
T4 sequence (Q06124 1-593): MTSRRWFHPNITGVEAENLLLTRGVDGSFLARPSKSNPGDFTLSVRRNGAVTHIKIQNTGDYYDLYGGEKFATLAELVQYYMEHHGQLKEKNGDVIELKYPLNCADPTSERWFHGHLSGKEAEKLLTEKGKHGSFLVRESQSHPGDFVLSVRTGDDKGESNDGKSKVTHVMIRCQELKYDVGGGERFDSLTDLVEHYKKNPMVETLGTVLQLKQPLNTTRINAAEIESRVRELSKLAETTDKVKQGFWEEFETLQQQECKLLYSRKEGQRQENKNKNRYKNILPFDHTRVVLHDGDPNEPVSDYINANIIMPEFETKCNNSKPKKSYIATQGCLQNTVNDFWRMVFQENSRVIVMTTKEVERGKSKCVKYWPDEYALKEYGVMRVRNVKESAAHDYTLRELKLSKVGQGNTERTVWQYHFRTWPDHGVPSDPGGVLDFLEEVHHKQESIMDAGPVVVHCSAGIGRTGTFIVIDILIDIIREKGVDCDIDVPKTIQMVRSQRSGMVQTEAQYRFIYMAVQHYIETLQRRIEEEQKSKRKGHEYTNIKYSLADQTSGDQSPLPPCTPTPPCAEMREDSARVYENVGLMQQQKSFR
Protocol: as §1, §2, §3, §4

[5] = molecular target: T5, PFKFB3 6-phosphofructo-2-kinase/fructose-2,6-bisphosphatase 3 C155 (Q16875) (Homo sapiens, UniProt Q16875); assay: Cysteine reactivity ABPP; assay type: binding
T5 construct: endogenous in cells; host or cells: primary human T cells
Protocol: as §1, §2, §3, §4

[6] = molecular target: T6, TYK2 Non-receptor tyrosine-protein kinase TYK2 C838 (P29597) (Homo sapiens, UniProt P29597); assay: Cysteine reactivity ABPP; assay type: binding
T6 construct: endogenous in cells; host or cells: primary human T cells
Protocol: as §1, §2, §3, §4

[7] = molecular target: T7, STAT3 Signal transducer and activator of transcription 3 C712, C718 (P40763) (Homo sapiens, UniProt P40763); assay: Cysteine reactivity ABPP; assay type: binding
T7 construct: endogenous in cells; host or cells: primary human T cells
Protocol: as §1, §2, §3, §4

[8] = molecular target: T8, ACAT1 Acetyl-CoA acetyltransferase, mitochondrial C119 (P24752) (Homo sapiens, UniProt P24752); assay: Cysteine reactivity ABPP; assay type: binding
T8 construct: endogenous in cells; host or cells: primary human T cells
T8 sequence (P24752 34-427): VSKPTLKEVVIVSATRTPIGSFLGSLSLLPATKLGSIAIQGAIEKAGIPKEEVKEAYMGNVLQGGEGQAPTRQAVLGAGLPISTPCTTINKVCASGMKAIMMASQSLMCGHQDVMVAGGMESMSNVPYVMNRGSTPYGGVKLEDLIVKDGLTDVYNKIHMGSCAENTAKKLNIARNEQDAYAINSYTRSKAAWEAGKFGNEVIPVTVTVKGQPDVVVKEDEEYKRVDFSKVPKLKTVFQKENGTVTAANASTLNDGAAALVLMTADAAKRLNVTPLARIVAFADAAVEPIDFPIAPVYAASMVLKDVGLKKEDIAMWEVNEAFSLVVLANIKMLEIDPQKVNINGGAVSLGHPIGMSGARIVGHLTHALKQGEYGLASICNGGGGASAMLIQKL
Protocol: as §1, §2, §3, §4

BIRC2 (C45) = molecular target: T9, BIRC2 (C45) (Homo sapiens, UniProt Q13490); assay: isoTOP-ABPP of elaborated compound data (DMF datasets); assay type: binding; conditions: maximal ratio of 20 = ≥95% reduction in MS1 peak area
T9 construct: endogenous in cells; host or cells: primary human T cells
Protocol: as §1
(§5) The heavy/light isoTOP-ABPP ratios (R values) for each unique peptide (DMSO/compound treated) were quantified with in-house CIMAGE software (Weerapana et al., 2010) using default parameters (3 MS1 acquisitions per peak and signal to noise threshold set to 2.5). Site-specific engagement of cysteine residues was assessed by blockade of IA-alkyne probe labeling. […] Ratios for unique peptide sequences were calculated for each experiment; overlapping peptides with the same modified cysteine (e.g., different charge states, elution times or tryptic termini) were grouped together and the median ratio was reported as the final ratio (R). […]

CASP2 (C366, C370) = molecular target: T10, CASP2 (C366, C370) (Homo sapiens, UniProt P42575); assay: as above; assay type: binding; conditions: maximal ratio of 20 = ≥95% reduction in MS1 peak area
T10 construct: Soluble and particulate proteomic fractions were separated by ultracentrifugation; endogenous in cells; host or cells: primary human T cells
T10 sequence (P42575 1-452): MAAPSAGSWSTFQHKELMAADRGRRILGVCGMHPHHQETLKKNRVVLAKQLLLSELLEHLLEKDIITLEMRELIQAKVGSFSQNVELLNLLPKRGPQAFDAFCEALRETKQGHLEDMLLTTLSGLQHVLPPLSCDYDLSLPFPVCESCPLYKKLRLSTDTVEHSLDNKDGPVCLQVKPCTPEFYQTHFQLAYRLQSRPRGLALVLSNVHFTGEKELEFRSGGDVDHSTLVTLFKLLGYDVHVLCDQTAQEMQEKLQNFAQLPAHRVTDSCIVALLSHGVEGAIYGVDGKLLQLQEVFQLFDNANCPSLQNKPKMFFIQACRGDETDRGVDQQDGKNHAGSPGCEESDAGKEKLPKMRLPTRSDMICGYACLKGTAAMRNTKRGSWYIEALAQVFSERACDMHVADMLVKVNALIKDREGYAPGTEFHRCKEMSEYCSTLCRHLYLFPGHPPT
Protocol: as §1, §5

primary human T cells = assay: Multidimensional screen for inhibition of T cell activation; assay type: cell-based
Protocol: Non-tissue culture treated 96-well plates are pre-coated with αCD3 (5 μg/mL) and αCD28 antibodies (2 μg/mL) in PBS (100 μL/well) and left at 4° C. overnight. Freshly isolated T cells are re-suspended in RPMI media supplemented with 10% FBS, L-glutamine (2 mM), penicillin (100 U/mL), and streptomycin (100 μg/mL) at 2×10^6 cells/mL. Compound stocks (200×) in DMSO are diluted to 2× stocks in the working RPMI media in another 96-well plate. The pre-coated 96-well treatment plates are washed with PBS (2×200μL), T cells (100 μL/well, 2×10^5 cells/well) are then added to the wells, followed by the addition of 2× compound stocks in RPMI media (100 μL). […]
The levels of secreted IL2, IFNγ and TNFα after incubating T cells in the presence of DMSO or electrophilic compounds under TCR-stimulating conditions are measured using DuoSet ELISA cytokine kits (R&D Systems) in clear microplates (R&D Systems) according to manufacturer's instructions and read using a CLARIOstar (BMG Labtech) plate reader (450 nm).
A multidimensional screen can be preformed of a focused library of structurally elaborated electrophilic small molecules to identify compounds that suppress T cell activation at low-μM concentrations without causing cytotoxicity. […] The viability of T cells can be monitored by flow cytometry using near-IR live-dead stain.

T1 sequence (P23458 whole entry): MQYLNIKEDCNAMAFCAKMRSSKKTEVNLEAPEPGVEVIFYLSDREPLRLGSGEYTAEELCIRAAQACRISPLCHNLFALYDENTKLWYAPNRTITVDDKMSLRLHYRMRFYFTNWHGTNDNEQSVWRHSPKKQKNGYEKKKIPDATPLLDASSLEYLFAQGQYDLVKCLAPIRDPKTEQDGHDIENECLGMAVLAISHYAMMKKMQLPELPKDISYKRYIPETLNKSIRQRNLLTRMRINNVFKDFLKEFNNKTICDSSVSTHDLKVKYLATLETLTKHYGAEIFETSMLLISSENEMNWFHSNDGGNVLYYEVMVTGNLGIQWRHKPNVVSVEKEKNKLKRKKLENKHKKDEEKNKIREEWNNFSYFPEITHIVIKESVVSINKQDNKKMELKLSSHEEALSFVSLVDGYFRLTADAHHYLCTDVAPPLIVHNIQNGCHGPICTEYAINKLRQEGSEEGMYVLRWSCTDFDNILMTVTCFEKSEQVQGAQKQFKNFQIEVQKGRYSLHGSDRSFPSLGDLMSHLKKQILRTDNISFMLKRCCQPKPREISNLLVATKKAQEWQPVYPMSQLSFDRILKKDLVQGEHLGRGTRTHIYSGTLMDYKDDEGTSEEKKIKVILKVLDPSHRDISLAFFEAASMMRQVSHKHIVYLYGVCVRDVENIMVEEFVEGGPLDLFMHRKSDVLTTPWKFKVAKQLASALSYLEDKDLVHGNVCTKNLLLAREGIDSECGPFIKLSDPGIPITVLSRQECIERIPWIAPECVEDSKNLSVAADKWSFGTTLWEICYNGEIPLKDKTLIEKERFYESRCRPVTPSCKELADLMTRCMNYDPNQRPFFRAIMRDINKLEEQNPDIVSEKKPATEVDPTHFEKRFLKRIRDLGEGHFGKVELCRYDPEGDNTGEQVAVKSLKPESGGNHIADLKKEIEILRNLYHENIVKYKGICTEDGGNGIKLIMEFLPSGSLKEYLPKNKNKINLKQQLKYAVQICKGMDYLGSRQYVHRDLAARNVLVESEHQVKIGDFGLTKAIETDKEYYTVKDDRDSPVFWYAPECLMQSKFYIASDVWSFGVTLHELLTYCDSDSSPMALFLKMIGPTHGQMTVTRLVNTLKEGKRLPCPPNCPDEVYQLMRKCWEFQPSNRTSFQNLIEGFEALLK
T5 sequence (Q16875 whole entry, one chain of several): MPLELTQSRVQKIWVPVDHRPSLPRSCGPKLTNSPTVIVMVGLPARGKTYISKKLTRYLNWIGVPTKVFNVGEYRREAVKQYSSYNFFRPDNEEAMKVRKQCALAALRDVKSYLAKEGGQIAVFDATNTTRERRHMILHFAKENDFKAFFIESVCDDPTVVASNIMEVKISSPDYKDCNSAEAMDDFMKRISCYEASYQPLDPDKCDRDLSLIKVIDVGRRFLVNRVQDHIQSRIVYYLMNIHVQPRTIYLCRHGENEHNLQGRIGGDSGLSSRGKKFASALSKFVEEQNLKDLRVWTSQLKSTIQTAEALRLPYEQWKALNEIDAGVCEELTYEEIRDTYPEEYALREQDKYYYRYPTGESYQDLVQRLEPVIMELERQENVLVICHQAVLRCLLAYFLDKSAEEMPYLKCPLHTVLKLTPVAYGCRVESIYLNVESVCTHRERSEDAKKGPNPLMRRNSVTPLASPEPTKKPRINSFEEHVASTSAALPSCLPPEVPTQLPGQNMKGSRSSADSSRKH
T2 sequence (P40763 whole entry, one chain of several): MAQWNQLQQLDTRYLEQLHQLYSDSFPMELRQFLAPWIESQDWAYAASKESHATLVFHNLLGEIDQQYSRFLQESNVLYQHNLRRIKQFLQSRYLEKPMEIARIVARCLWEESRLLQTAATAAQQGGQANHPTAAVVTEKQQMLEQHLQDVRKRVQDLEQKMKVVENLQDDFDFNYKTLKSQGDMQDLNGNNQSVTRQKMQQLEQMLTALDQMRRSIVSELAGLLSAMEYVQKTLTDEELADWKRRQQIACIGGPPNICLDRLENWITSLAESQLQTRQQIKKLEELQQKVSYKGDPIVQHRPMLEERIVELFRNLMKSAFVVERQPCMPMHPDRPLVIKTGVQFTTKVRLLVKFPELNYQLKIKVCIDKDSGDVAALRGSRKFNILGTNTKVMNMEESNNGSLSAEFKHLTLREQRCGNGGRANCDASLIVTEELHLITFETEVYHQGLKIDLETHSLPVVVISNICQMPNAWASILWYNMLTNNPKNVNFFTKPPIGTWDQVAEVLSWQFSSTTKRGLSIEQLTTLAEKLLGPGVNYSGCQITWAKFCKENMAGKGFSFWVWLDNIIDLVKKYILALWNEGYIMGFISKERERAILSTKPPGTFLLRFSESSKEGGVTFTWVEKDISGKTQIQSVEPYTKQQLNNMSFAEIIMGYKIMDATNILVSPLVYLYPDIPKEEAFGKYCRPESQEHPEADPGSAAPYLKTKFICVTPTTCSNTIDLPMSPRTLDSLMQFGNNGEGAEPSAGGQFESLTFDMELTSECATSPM
T7 sequence (P40763 whole entry, one chain of several): as above
T6 sequence (P29597 whole entry): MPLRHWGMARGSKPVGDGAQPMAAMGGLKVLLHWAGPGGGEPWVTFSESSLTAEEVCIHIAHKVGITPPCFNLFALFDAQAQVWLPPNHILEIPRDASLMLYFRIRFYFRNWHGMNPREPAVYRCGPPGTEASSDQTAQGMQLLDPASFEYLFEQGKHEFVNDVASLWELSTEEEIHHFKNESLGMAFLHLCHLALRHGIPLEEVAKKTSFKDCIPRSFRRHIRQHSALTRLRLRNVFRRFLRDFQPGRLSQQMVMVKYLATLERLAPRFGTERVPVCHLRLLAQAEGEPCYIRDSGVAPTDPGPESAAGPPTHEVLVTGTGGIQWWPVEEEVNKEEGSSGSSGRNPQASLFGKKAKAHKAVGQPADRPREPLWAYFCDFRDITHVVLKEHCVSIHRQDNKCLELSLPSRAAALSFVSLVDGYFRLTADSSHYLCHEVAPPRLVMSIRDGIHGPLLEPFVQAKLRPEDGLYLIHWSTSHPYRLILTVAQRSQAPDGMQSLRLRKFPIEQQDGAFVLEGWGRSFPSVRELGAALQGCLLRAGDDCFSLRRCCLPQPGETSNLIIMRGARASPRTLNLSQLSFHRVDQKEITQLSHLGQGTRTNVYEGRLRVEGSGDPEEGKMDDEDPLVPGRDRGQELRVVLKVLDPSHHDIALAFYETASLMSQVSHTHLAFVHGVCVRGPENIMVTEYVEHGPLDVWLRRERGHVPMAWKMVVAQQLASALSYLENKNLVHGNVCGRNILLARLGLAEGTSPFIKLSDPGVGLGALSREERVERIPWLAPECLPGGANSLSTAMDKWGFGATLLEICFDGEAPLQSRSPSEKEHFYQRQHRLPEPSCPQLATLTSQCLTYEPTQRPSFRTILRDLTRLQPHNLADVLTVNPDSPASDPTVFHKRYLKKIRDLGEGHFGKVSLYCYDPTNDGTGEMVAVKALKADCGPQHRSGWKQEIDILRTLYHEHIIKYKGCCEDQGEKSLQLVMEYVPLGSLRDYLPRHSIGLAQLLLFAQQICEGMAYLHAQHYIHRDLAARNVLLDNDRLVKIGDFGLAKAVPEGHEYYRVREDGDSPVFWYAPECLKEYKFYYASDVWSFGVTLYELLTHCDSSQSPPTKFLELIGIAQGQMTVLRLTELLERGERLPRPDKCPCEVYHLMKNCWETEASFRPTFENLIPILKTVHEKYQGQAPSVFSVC
T3 sequence (Q13191 whole entry): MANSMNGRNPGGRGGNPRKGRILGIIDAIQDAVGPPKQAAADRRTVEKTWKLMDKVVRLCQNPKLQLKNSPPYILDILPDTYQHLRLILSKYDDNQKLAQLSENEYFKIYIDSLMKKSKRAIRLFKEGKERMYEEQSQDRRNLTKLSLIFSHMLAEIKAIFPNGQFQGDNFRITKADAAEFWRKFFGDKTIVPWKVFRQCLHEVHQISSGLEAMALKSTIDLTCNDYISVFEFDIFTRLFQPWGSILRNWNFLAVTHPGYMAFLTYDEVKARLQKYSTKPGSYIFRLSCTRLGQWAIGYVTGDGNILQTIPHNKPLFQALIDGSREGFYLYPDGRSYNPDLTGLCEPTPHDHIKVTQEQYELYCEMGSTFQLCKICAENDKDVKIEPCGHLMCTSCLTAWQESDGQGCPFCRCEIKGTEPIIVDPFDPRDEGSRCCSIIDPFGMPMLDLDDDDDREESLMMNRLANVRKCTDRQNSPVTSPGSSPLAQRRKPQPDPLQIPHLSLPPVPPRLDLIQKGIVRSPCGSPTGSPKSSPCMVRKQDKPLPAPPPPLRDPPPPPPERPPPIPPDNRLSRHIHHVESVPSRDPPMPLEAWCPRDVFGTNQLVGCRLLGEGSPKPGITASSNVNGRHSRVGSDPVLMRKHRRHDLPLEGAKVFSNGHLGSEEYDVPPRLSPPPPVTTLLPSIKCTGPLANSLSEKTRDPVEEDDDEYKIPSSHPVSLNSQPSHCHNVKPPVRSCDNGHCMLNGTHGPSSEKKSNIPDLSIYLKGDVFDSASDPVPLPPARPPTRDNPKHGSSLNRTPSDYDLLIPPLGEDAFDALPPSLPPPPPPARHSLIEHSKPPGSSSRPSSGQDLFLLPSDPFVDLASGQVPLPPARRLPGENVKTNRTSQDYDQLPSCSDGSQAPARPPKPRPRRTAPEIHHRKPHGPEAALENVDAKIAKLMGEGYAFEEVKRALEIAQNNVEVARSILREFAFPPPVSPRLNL

Cysteine reactivity proteomic data ([1]; 100 μM) | Cysteine reactivity proteomic data ([1]; 500 μM) | Cysteine reactivity proteomic data ([2]; 100 μM) | Cysteine reactivity proteomic data ([2]; 500 μM) | Cysteine reactivity proteomic data ([3]; 100 μM) | Cysteine reactivity proteomic data ([3]; 500 μM) | Cysteine reactivity proteomic data ([4]; 100 μM) | Cysteine reactivity proteomic data ([4]; 500 μM) | Cysteine reactivity proteomic data ([5]; 100 μM) | Cysteine reactivity proteomic data ([5]; 500 μM) | Cysteine reactivity proteomic data ([6]; 100 μM) | Cysteine reactivity proteomic data ([6]; 500 μM) | Cysteine reactivity proteomic data ([7]; 100 μM) | Cysteine reactivity proteomic data ([7]; 500 μM) | Cysteine reactivity proteomic data ([8]; 100 μM) | Cysteine reactivity proteomic data ([8]; 500 μM) | Compound | isoTOP-ABPP ratio R (DMSO/compound treated) (BIRC2 (C45)) | isoTOP-ABPP ratio R (DMSO/compound treated) (CASP2 (C366, C370)) | suppress T cell activation (primary human T cells; anti-CD3/anti-CD28 activation, measured 24 h later by reductions in secreted IL-2, IFN-γ and CD69, CD25 expression) [%] | viability of T cells (primary human T cells; flow cytometry, near-IR live-dead stain) [%]
94.3358 | 99.489 | 58.1986 | 57.1888 | 4.7619 | 84.7455 | 50.0993 | 72.8049 | 81.7564 | 89.0944 | 96.4386 | 98.2637 | 42.1791 | 80.6157 | −14.9577 | 58.3081 | C=CC(=O)N(Cc1cccc(Cl)n1)c1ccc(C(=O)Nc2ccccc2)nc1 [Compound L4] | – | – | – | –
– | – | – | – | – | – | – | – | – | – | – | – | – | – | – | – | CN(C)C=O [DMF] | 20 | 20 | > 65 | > 85
